# PubChem BioAssay (NCI)
# Several values for one entry are separate records, joined by “and”; a condition that tells them apart may be missing. Equal entries are not always repeated.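 Briefly, cells in 96-well plates were exposed to five compound concentrations for 48 h, and endpoints were estimated by linear interpolation. GI50 marks 50% less growth. The concentration for full growth arrest is given as TGI.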
# Legend:
# Experiment in all cases: growth of human tumour cells (NCI), 48 h
# COLO 205 colon = system: COLO 205 colon
# DU-145 prostate = system: DU-145 prostate
# HT29 colon = system: HT29 colon
# MALME-3M melanoma = system: MALME-3M melanoma
# MCF7 breast = system: MCF7 breast
# MDA-MB-435 = system: MDA-MB-435
# OVCAR-3 ovarian = system: OVCAR-3 ovarian
# SF-295 CNS = system: SF-295 CNS
# SF-539 CNS = system: SF-539 CNS
# SNB-19 CNS = system: SNB-19 CNS
compound,measurement,setting,value
COc1cc(/C=C/c2ccccn2)cc(OC)c1OC,TGI,COLO 205 colon,> 10 µM
same,TGI,DU-145 prostate,> 10 µM
same,TGI,HT29 colon,> 10 µM
same,TGI,MALME-3M melanoma,> 10 µM
same,TGI,MCF7 breast,> 10 µM
same,TGI,MDA-MB-435,> 10 µM
same,TGI,OVCAR-3 ovarian,> 10 µM
same,TGI,SF-295 CNS,> 10 µM
same,TGI,SF-539 CNS,> 10 µM
same,TGI,SNB-19 CNS,> 10 µM
Fc1ccc(-c2c(-c3ccncc3)[nH]c3nccnc23)cc1,GI50,COLO 205 colon,5.86 µM
same,TGI,COLO 205 colon,> 25 µM
same,GI50,DU-145 prostate,7.32 µM
same,TGI,DU-145 prostate,> 22 µM
same,GI50,HT29 colon,6.41 µM
same,TGI,HT29 colon,> 25 µM
same,GI50,MALME-3M melanoma,> 9.39 µM
same,TGI,MALME-3M melanoma,> 17.4 µM
same,GI50,MCF7 breast,7.39 µM
same,TGI,MCF7 breast,> 25 µM
same,GI50,MDA-MB-435,11.6 µM
same,TGI,MDA-MB-435,> 25 µM
same,GI50,OVCAR-3 ovarian,10.3 µM
same,TGI,OVCAR-3 ovarian,> 25 µM
same,GI50,SF-295 CNS,> 15.1 µM
same,TGI,SF-295 CNS,> 25 µM
same,GI50,SF-539 CNS,9.94 µM
same,TGI,SF-539 CNS,> 25 µM
same,GI50,SNB-19 CNS,> 20.3 µM
same,TGI,SNB-19 CNS,> 25 µM
CS(=O)(=O)N1CCc2c(-c3cnc(N)nc3)nc(N3CCOCC3)nc21,GI50,COLO 205 colon,0.444 µM and 0.516 µM
same,TGI,COLO 205 colon,> 10 µM and 13 µM
same,GI50,DU-145 prostate,0.632 µM and 0.503 µM
same,TGI,DU-145 prostate,> 45.9 µM
same,GI50,HT29 colon,0.26 µM and 0.307 µM
same,TGI,HT29 colon,> 77.5 µM
same,GI50,MALME-3M melanoma,0.619 µM and 0.488 µM
same,TGI,MALME-3M melanoma,> 6.87 µM and 4.87 µM
same,GI50,MCF7 breast,0.0961 µM and 0.05 µM
same,TGI,MCF7 breast,> 76.1 µM
same,GI50,MDA-MB-435,0.94 µM and 0.78 µM
same,TGI,MDA-MB-435,> 10 µM and 12.6 µM
same,GI50,OVCAR-3 ovarian,0.59 µM and 0.641 µM
same,TGI,OVCAR-3 ovarian,> 21.4 µM
same,GI50,SF-295 CNS,0.556 µM and 0.354 µM
same,TGI,SF-295 CNS,3.91 µM and 3.29 µM
same,GI50,SF-539 CNS,0.835 µM and 0.878 µM
same,TGI,SF-539 CNS,4.13 µM and 3.89 µM
same,GI50,SNB-19 CNS,2.21 µM and 1.64 µM
same,TGI,SNB-19 CNS,> 59.5 µM
Nc1ccc(C(=O)Nc2ccccc2N)cc1,TGI,COLO 205 colon,45.2 µM
same,TGI,DU-145 prostate,> 100 µM
same,TGI,HT29 colon,> 100 µM
same,TGI,MALME-3M melanoma,30.3 µM
same,TGI,MCF7 breast,> 100 µM
same,TGI,MDA-MB-435,> 100 µM
same,TGI,OVCAR-3 ovarian,> 100 µM
same,TGI,SF-295 CNS,> 100 µM
same,TGI,SF-539 CNS,> 100 µM
same,TGI,SNB-19 CNS,> 100 µM
COc1ccc(-c2nc3sccn3c2-c2ccnc(NCCCNS(=O)(=O)c3ccc(F)cc3)n2)cc1,GI50,COLO 205 colon,1.89 µM
same,TGI,COLO 205 colon,8.15 µM
same,GI50,DU-145 prostate,3.02 µM
same,TGI,DU-145 prostate,> 100 µM
same,GI50,HT29 colon,2.16 µM
same,TGI,HT29 colon,> 100 µM
same,GI50,MALME-3M melanoma,2.6 µM
same,TGI,MALME-3M melanoma,7.86 µM
same,GI50,MCF7 breast,2.48 µM
same,TGI,MCF7 breast,8.66 µM
same,GI50,MDA-MB-435,2 µM
same,TGI,MDA-MB-435,6.51 µM
same,GI50,OVCAR-3 ovarian,2.96 µM
same,TGI,OVCAR-3 ovarian,48.7 µM
same,GI50,SF-295 CNS,2.8 µM
same,TGI,SF-295 CNS,8.55 µM
same,GI50,SF-539 CNS,2.91 µM
same,TGI,SF-539 CNS,8.67 µM
same,GI50,SNB-19 CNS,4.43 µM
same,TGI,SNB-19 CNS,> 100 µM
COC(=O)C1(C)CCCC2(C)c3cc(OC)ccc3C(=O)C(Br)C12 (stereo not given),TGI,COLO 205 colon,7.29 µM
same,TGI,DU-145 prostate,> 10 µM
same,TGI,HT29 colon,> 10 µM
same,TGI,MALME-3M melanoma,9.71 µM
same,TGI,MCF7 breast,> 10 µM
same,TGI,MDA-MB-435,> 10 µM
same,TGI,OVCAR-3 ovarian,> 10 µM
same,TGI,SF-295 CNS,> 10 µM
same,TGI,SF-539 CNS,> 10 µM
same,TGI,SNB-19 CNS,> 10 µM
O=C(/C=C/c1ccccc1)OCC1=C[C@@H](O)[C@@H]2C=CO[C@@H](OC3OC(CO)C(O)C(O)C3O)[C@H]12 (stereo not given in full),TGI,COLO 205 colon,> 100 µM
same,TGI,DU-145 prostate,> 100 µM
same,TGI,HT29 colon,> 100 µM
same,TGI,MALME-3M melanoma,> 100 µM
same,TGI,MCF7 breast,> 100 µM
same,TGI,MDA-MB-435,> 100 µM
same,TGI,OVCAR-3 ovarian,> 100 µM
same,TGI,SF-295 CNS,> 100 µM
same,TGI,SF-539 CNS,> 100 µM
same,TGI,SNB-19 CNS,> 100 µM
COc1cc(-c2nn(-c3cccc(NC(=O)CCN4CCN(C)CC4)c3)cc2-c2ccncc2)ccc1Cl,GI50,COLO 205 colon,1.09 µM
same,TGI,COLO 205 colon,2.47 µM
same,GI50,DU-145 prostate,0.997 µM
same,TGI,DU-145 prostate,6.24 µM
same,GI50,HT29 colon,0.371 µM
same,TGI,HT29 colon,1.64 µM
same,GI50,MALME-3M melanoma,0.847 µM
same,TGI,MALME-3M melanoma,2.36 µM
same,GI50,MCF7 breast,0.35 µM
same,TGI,MCF7 breast,1.92 µM
same,GI50,MDA-MB-435,0.283 µM
same,TGI,MDA-MB-435,1.13 µM
same,GI50,OVCAR-3 ovarian,0.363 µM
same,TGI,OVCAR-3 ovarian,1.75 µM
same,GI50,SF-295 CNS,0.968 µM
same,TGI,SF-295 CNS,2.75 µM
same,GI50,SF-539 CNS,1.55 µM
same,TGI,SF-539 CNS,3.06 µM
same,GI50,SNB-19 CNS,2.01 µM
same,TGI,SNB-19 CNS,8.89 µM
CC(C)[C@H](C(=O)O[C@@H]1/C=C/C(=O)O[C@@H](C)CCC/C=C/[C@@H]2C[C@H](O)C[C@H]21)N(C)C,GI50,COLO 205 colon,3.49 µM
same,TGI,COLO 205 colon,9.67 µM
same,GI50,DU-145 prostate,31.5 µM
same,TGI,DU-145 prostate,> 100 µM
same,GI50,HT29 colon,4.67 µM
same,TGI,HT29 colon,> 36 µM
same,GI50,MALME-3M melanoma,6.97 µM
same,TGI,MALME-3M melanoma,32.1 µM
same,GI50,MCF7 breast,6.65 µM
same,TGI,MCF7 breast,28.1 µM
same,GI50,MDA-MB-435,5.84 µM
same,TGI,MDA-MB-435,> 55.8 µM
same,GI50,OVCAR-3 ovarian,8.54 µM
same,TGI,OVCAR-3 ovarian,37.8 µM
same,GI50,SF-295 CNS,4.85 µM
same,TGI,SF-295 CNS,25.1 µM
same,GI50,SF-539 CNS,10.2 µM
same,TGI,SF-539 CNS,58.9 µM
same,GI50,SNB-19 CNS,30.2 µM
same,TGI,SNB-19 CNS,> 100 µM
Cc1cc(C#Cc2ccccc2)ccc1-n1c(/C=C/c2cc(O)ccc2O)nc2ccccc2c1=O,GI50,COLO 205 colon,1.48 µM
same,TGI,COLO 205 colon,2.8 µM
same,GI50,DU-145 prostate,0.419 µM
same,TGI,DU-145 prostate,1.62 µM
same,GI50,HT29 colon,1.97 µM
same,TGI,HT29 colon,4.19 µM
same,GI50,MALME-3M melanoma,1.5 µM
same,TGI,MALME-3M melanoma,3.72 µM
same,GI50,MCF7 breast,1.45 µM
same,TGI,MCF7 breast,2.87 µM
same,GI50,MDA-MB-435,1.67 µM
same,TGI,MDA-MB-435,3.53 µM
same,GI50,OVCAR-3 ovarian,1.49 µM
same,TGI,OVCAR-3 ovarian,2.81 µM
same,GI50,SF-295 CNS,1.35 µM
same,TGI,SF-295 CNS,3.82 µM
same,GI50,SF-539 CNS,1.6 µM
same,TGI,SF-539 CNS,3.44 µM
same,GI50,SNB-19 CNS,1.62 µM
same,TGI,SNB-19 CNS,3.18 µM
COc1cccc(/C=C\c2ccnc3ccccc23)c1,TGI,COLO 205 colon,> 10 µM
same,TGI,DU-145 prostate,> 10 µM
same,TGI,HT29 colon,> 10 µM
same,TGI,MALME-3M melanoma,> 10 µM
same,TGI,MCF7 breast,> 10 µM
same,TGI,MDA-MB-435,> 10 µM
same,TGI,OVCAR-3 ovarian,> 10 µM
same,TGI,SF-295 CNS,> 10 µM
same,TGI,SF-539 CNS,> 10 µM
same,TGI,SNB-19 CNS,> 10 µM
N[C@@H](CSSC[C@H](N)C(=O)N1CCn2cc(-c3ccccc3)nc2[C@@H]1CC1CCCCC1)C(=O)N1CCn2cc(-c3ccccc3)nc2[C@@H]1CC1CCCCC1,GI50,COLO 205 colon,1.79 µM
same,TGI,COLO 205 colon,3.27 µM
same,GI50,DU-145 prostate,2.45 µM
same,TGI,DU-145 prostate,8.65 µM
same,GI50,HT29 colon,1.63 µM
same,TGI,HT29 colon,3.42 µM
same,GI50,MALME-3M melanoma,1.5 µM
same,TGI,MALME-3M melanoma,2.99 µM
same,GI50,MCF7 breast,1.42 µM
same,TGI,MCF7 breast,2.85 µM
same,GI50,MDA-MB-435,0.331 µM
same,TGI,MDA-MB-435,1.45 µM
same,GI50,OVCAR-3 ovarian,1.41 µM
same,TGI,OVCAR-3 ovarian,2.76 µM
same,GI50,SF-295 CNS,1.83 µM
same,TGI,SF-295 CNS,3.41 µM
same,GI50,SF-539 CNS,1.75 µM
same,TGI,SF-539 CNS,3.55 µM
same,GI50,SNB-19 CNS,1.36 µM
same,TGI,SNB-19 CNS,2.85 µM
O=C1/C(=C/c2ccccc2[N+](=O)[O-])COc2ccc(O)c(O)c21,GI50,COLO 205 colon,0.71 µM
same,TGI,COLO 205 colon,2.57 µM
same,GI50,DU-145 prostate,0.807 µM
same,TGI,DU-145 prostate,2.36 µM
same,GI50,HT29 colon,0.529 µM
same,TGI,HT29 colon,3.35 µM
same,GI50,MALME-3M melanoma,0.866 µM
same,TGI,MALME-3M melanoma,3 µM
same,GI50,MCF7 breast,0.409 µM
same,TGI,MCF7 breast,3.02 µM
same,GI50,MDA-MB-435,0.691 µM
same,TGI,MDA-MB-435,2.38 µM
same,GI50,OVCAR-3 ovarian,0.295 µM
same,TGI,OVCAR-3 ovarian,0.976 µM
same,GI50,SF-295 CNS,3.26 µM
same,TGI,SF-295 CNS,11.1 µM
same,GI50,SF-539 CNS,1.21 µM
same,TGI,SF-539 CNS,2.99 µM
same,GI50,SNB-19 CNS,2.45 µM
same,TGI,SNB-19 CNS,9.53 µM
Cn1cc(C2=C(c3c(S(C)=O)n(C)c4ccccc34)C(=O)NC2=O)c2ccccc21 (stereo not given),GI50,COLO 205 colon,5.96 µM
same,TGI,COLO 205 colon,> 18.6 µM
same,GI50,DU-145 prostate,8.9 µM
same,TGI,DU-145 prostate,> 25 µM
same,GI50,HT29 colon,7.51 µM
same,TGI,HT29 colon,> 25 µM
same,GI50,MALME-3M melanoma,> 25 µM
same,TGI,MALME-3M melanoma,> 25 µM
same,GI50,MCF7 breast,6.33 µM
same,TGI,MCF7 breast,> 25 µM
same,GI50,MDA-MB-435,2.68 µM
same,TGI,MDA-MB-435,9.14 µM
same,GI50,OVCAR-3 ovarian,6.31 µM
same,TGI,OVCAR-3 ovarian,17.5 µM
same,GI50,SF-295 CNS,5.93 µM
same,TGI,SF-295 CNS,> 17.2 µM
same,GI50,SF-539 CNS,6.35 µM
same,TGI,SF-539 CNS,> 20.1 µM
same,GI50,SNB-19 CNS,25 µM
same,TGI,SNB-19 CNS,> 25 µM
